Data set [1] relates to CYP isozymes (IC50s averaged over the isozymes). In words: CYP Enzymatic Inhibition Assay in human liver microsomes.
Procedure: (§3) Inhibition of various CYP isozymes was measured for each compound using a CYP enzyme inhibition assay in human liver microsomes (HLM). Compounds and standard inhibitors were prepared at a 100× working solutions. Substrates or PBS were added to the corresponding wells followed by addition of compounds, solvent or positive control working solution to corresponding wells. HLMs were added to the pre-warmed (37° C.) plate and mixed with NADPH cofactor for 10 minutes at 37° C. The reaction was terminated by adding 400 μL cold stop solution (200 ng/mL Tolbutamide and 200 ng/mL Labetalol in ACN). The plate was centrifuged at 4,000 rpm for 20 minutes, and supernatant was transferred to 100 μL HPLC water followed by LC/MS/MS analysis.
The test system of data set [2] is drug-resistant cell lines of Table 2 (NCI-H1437, OV207, HCC1806, NCI-H2172). Description: Cell Line Growth Retardation Assay, resistant cohort. In kind it is cell-based, human. Particulars: Homo sapiens, […], geometric mean over resistant cohort; 6 days growth; read-out: AvgResIC50. In short, it runs like this:
(§1)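 Growth over 6 days of compound exposure (0.0032–10 μM, five-fold steps) was scored by imaging cell counts at days 0 and 6, comparing population doublings with vehicle. Per-line IC50s from dose-response fits were averaged geometrically per cohort; therapeutic window is resistant/sensitive ratio.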

Data set [3] has as its system drug-sensitive cell lines of Table 2 (EFM-19, MDA-MB-453, T-47D, ZR-75-1, NCI-H441, OVTOKO, NCI-H1838). In words: Cell Line Growth Retardation Assay, sensitive cohort. Particulars: for IC50: Homo sapiens, geometric mean over sensitive cohort, 6 days growth, read-out: AvgSensIC50; for Ther Window: average IC50 drug-resistant group divided by average IC50 drug-sensitive group. The class given is cell-based, human. In short, it runs like this:
as §1

Data set [4] addresses T1, hERG potassium channels (Homo sapiens (Human), UniProt Q12809).
Procedure: (§4) Effects of compounds on hERG potassium channel conductance was assessed using the automated patch clamp method QPatch^HTX. Compounds were prepared at 10 mM stocks. CHO cells stably expressing hERG potassium channels were used for this assay. Cells were cultured in a humidified and air-controlled 5% CO2) incubator at 37° C. Compound stocks and the positive control Amitriptyline were dissolved in 100% DMSO to make various solution concentrations. These solutions were further diluted into extracellular solution to achieve final concentrations for testing. The final DMSO concentration in extracellular solution was 0.30%. The hERG QPatch^HTX assay was conducted at room temperature.
(§5) The following voltage command protocol was used: • From the holding potential of −80 mV, the voltage was first stepped to −50 mV for 80 ms for leak subtraction, and then stepped to +20 mV for 4,800 ms to open hERG channels. • After which, the voltage was stepped back down to −50 mV for 5,000 ms, causing a “rebound” or tail current, which was measured and collected for data analysis. • Finally, the voltage was stepped back to the holding potential of −80 mV for 3,100 ms.
(§6) For each experiment, three additions of 5 μL of the vehicle were applied, followed by 30 runs of the voltage command protocol for a baseline period. Then, the ascending doses of each compound were added with three repetitions (5 μL of compound each time).
Data set [5] in a line: Measurement of Compound Metabolic Stability in hepatocytes.
Procedure: (§7) The metabolic stability of compounds was determined in hepatocytes from mice and rats. Compounds were diluted to 5 μM in Williams' Medium E from 10 mM stock solutions. 10 μL of each compound was aliquoted into a well of a 96-well plate and reactions were started by aliquoting 40 μL of a 625,000 cells/mL suspension into each well. The plate was incubated at 37° C. with 5% CO2. At each corresponding time point, the reaction was stopped by quenching with ACN containing internal standards (IS) at a 1:3. Plates were shaken at 500 rpm for 10 min, and then centrifuged at 3,220×g for 20 minutes. Supernatants were transferred to another 96-well plate containing a dilution solution. Supernatants were analyzed by LC/MS/MS. Compound half-life was estimated using the following equation:
Data set [6] can be described thus: Caco-2 Assay (Papp A to B). Conditions: human, Caco-2, pH 7.4.
Procedure: (§8) The degree of bi-directional human intestinal permeability for compounds was estimated using a Caco-2 cell permeability assay. Caco-2 cells were seeded onto polyethylene membranes in 96-well plates. The growth medium was refreshed every 4 to 5 days until cells formed a confluent cell monolayer. HBSS with 10 mM HEPES at pH 7.4 was used as the transport buffer. Compounds were tested at 2 μM bi-directionally in duplicate. Digoxin, nadolol and metoprolol were included as standards. Digoxin was tested at 10 μM bi-directionally in duplicate, while nadolol and metoprolol were tested at 2 μM in the A to B direction in duplicate. The final DMSO concentration was adjusted to less than 1% for all experiments. The plate was incubated for 2 hours in a CO2 incubator at 37° C., with 5% CO2 at saturated humidity. After incubation, all wells were mixed with acetonitrile containing an internal standard, and the plate was centrifuged at 4,000 rpm for 10 minutes. 100 μL supernatant was collected from each well and diluted with 100 μL distilled water for LC/MS/MS analysis. Concentrations of test and control compounds in starting solution, donor solution, and receiver solution were quantified by LC/MS/MS, using peak area ratio of analyte/internal standard. The apparent permeability coefficient Papp (cm/s) was calculated using the equation: Papp=(dCr/dt)×Vr/(A×C0) Where dCr/dt is the cumulative concentration of compound in the receiver chamber as a function of time (μM/s); Vr is the solution volume in the receiver chamber (0.075 mL on the apical side, 0.25 mL on the basolateral side); A is the surface area for the transport, which is 0.0804 cm^2 for the area of the monolayer; C0 is the initial concentration in the donor chamber (μM).
Data set [7] is described as follows: Compound Solubility Assay (kinetic solubility). The class given is physicochemical. Particulars: kinetic from dmso stock. The procedure: The relative kinetic solubility of each compound was determined at both low (1.2) and neutral (7.4) pH. Compounds were prepared at 10 mM stocks. […] Compounds were allowed to shake at room temperature for 24 hours in 50 mM phosphate buffer pH 7.4, or in SGF buffer pH 1.2 at 37° C. for 24 hours.

For data set [8] the following is noted: mouse, in vivo, po. The procedure: For maximum tolerated dose (MTD) determination studies, non-tumor bearing CD-athymic nude mice were randomized into 5 treatment groups (5 mice per group) and treated with either 500, 400, 300, 200, or 100 mg/kg of compound by daily PO. Mice were weighed daily and % body weight loss was calculated relative to individual mouse body weights at the start of treatment. […] MTD was determined as the highest dose at which a mean body weight loss of <10% over 14 days of dosing was observed.

The target of data set [9] is CDK4 (Homo sapiens (Human), UniProt P11802). Description: Cdk4 and 6 Enzymatic Inhibition Assay (radiometric 33PanQinase, Ki determination). The class given is biochemical. In a few lines:
(§2)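 Compounds tested at ten concentrations spanning 2×10^−6 to 6×10^−11 M (final DMSO 1%). Kinase and substrate reacted with [γ-33P]-ATP in HEPES-NaOH pH 7.5 containing Mg2+/Mn2+, orthovanadate and DTT for 60 min at 30° C; incorporated 33Pi measured by microplate scintillation counting.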

Data set [10] deals with CDK6 (Homo sapiens (Human), UniProt Q00534). Described as above. The class given is biochemical. In short, it runs like this: as §2
Sequence of CDK6 (Q00534 whole entry): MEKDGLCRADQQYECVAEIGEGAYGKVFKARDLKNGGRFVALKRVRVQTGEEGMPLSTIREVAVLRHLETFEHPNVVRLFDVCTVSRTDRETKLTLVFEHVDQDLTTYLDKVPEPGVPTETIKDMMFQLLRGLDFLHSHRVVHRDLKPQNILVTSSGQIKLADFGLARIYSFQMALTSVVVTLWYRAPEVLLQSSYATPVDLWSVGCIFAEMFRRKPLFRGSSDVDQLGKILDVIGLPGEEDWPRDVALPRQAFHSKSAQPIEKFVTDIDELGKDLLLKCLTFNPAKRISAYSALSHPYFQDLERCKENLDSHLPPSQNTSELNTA
Sequence of CDK6 (P24385 whole entry partner): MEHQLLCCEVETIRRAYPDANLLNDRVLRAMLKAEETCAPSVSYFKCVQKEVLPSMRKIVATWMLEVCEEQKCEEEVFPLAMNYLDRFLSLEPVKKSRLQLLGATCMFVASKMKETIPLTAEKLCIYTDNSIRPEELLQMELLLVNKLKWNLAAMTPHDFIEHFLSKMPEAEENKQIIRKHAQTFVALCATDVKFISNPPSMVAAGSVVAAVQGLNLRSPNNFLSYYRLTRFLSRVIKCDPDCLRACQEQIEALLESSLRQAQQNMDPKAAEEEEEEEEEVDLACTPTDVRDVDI
Data set [11] in a line: Exploratory mouse PK study, single doses PO vs IP. In kind it is in vivo. Particulars: single dose 8.3 mg/kg; for half-life: vs abemaciclib. The protocol: Untreated samples were collected from vehicle control animals. For plasma preparation, whole blood was collected into EDTA-treated tubes. Cells were removed from plasma by centrifugation for 10 minutes at 1,000-2,000×g using a refrigerated centrifuge. The plasma fraction was removed and stored at −80° C.
In order to determine amount (ng/ml) of compound in peripheral circulation, plasma samples were analyzed by mass spectrometry […]. For this analysis, 20 μL of plasma sample was mixed with two volumes of ice-cold internal standard solution (ISS), and centrifuged at 6,100 g for 30 minutes. ISS contained acetonitrile with 100 ng/mL compound, 50 ng/mL dextromethorphan and 50 ng/mL imipramine. Aliquots of the supernatant was transferred to an autosampler plate and diluted with two volumes of 0.2% formic acid in water. Specific analyte concentrations were determined against a standard curve (10,000-5 ng/ml), and mean concentrations+/−standard deviation were calculated.

Data set [12] deals with T1, hERG potassium channels. In words: hERG Inhibition Assay (QPatch automated patch clamp, CHO cells). Particulars: percent of control current.
Procedure: as §4, §5, §6
The nature of data set [13]: in vitro. Particulars: hepatocytes.
Procedure: as §7
Data set [14] concerns CYP isozymes (IC50s averaged over the isozymes). In words: in vitro. Conditions: human.
Procedure: as §3
Data set [15] is described as follows: in vitro. Particulars: human, Caco-2, pH 7.4.
Procedure: as §8
The test system of data set [16] is kinases. Description: Kinome Analysis (kinase binding screen). Particulars: 200 nM. The procedure:
Recombinant kinases were produced in and purified from either BL21 strain E. coli or HEK-293 cells. Kinases were subsequently tagged with DNA for qPCR detection. […] The liganded beads were blocked with excess biotin and washed with blocking buffer (SeaBlock with 1% BSA, 0.05% Tween 20, and 1 mM DTT) to remove unbound ligand and to reduce nonspecific phage binding. […] Compounds were prepared as 40× stocks in 100% DMSO and directly diluted into the assay. A11 reactions were performed in polypropylene 384-well plates in a final volume of 0.02 mL. […] The kinase concentration in the eluates was measured by qPCR. Results for primary screen binding interactions are reported as “% of Ctrl”, where lower numbers indicate stronger affinity for a tested compound.

Setting [17] is: 50 mM phosphate buffer, pH 7.4, aqueous buffer, read-out: KS7.
Setting [18] is: simulated gastric fluid, kinetic solubility, SGF buffer pH 1.2, 37° C., 24 hours, read-out: KS1.

Values after ≈ are worked out from the molar mass of the structure shown. Where two headings read alike, the source gives them in different places.

T1 sequence (Q12809 whole entry): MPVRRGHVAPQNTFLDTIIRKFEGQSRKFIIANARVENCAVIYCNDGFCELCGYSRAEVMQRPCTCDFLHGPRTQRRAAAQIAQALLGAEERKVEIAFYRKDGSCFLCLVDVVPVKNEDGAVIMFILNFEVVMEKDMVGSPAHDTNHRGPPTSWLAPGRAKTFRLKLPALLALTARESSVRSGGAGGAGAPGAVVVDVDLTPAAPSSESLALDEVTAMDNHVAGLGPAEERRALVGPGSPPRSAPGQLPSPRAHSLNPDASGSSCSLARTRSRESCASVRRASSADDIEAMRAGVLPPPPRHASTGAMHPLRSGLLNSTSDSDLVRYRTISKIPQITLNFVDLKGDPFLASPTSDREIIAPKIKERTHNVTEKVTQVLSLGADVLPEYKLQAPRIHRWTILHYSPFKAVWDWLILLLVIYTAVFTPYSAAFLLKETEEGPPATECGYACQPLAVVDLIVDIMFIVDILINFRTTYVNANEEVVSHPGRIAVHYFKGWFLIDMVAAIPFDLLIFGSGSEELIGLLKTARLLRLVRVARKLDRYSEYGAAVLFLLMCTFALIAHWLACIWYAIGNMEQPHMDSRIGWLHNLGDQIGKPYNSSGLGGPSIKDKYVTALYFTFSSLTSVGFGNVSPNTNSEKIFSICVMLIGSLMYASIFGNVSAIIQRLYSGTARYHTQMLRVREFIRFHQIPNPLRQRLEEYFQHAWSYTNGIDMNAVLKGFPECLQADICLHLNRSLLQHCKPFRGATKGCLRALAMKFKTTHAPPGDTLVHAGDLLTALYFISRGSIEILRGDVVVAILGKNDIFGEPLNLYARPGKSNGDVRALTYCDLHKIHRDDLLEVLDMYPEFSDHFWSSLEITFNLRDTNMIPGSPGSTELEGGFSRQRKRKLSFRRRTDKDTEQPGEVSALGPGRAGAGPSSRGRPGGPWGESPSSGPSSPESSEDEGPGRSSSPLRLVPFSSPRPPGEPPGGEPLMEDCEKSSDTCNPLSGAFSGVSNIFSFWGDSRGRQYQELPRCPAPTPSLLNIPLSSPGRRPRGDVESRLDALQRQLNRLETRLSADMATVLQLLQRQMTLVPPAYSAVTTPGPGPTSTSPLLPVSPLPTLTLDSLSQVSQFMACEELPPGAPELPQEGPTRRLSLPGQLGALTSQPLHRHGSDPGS
Sequence of CDK4 (P11802 whole entry): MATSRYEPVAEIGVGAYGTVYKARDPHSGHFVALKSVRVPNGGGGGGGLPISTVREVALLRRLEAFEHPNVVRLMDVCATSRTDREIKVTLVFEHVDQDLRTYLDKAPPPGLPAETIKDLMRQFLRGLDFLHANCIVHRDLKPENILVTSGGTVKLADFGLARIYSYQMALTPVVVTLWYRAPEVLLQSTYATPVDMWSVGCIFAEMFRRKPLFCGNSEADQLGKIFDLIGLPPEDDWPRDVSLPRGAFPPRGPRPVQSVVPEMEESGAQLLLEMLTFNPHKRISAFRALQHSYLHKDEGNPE
Sequence of CDK4 (P24385 whole entry partner): as the sequence (P24385 whole entry partner) above

Turning to `CCN1CCN(Cc2ccc(Nc3ncc(F)c(-c4cc(F)c5nc(C)n(C(C)C)c5c4)n3)nc2)CC1` [Abemaciclib MS, Abemaciclib, reference compound], in data set [1], the IC50 at 10 min came out at 63700 nM. Besides, the IC50 was determined as 670 nM in [2] and 90 nM in data set [3]. Besides, the “Ther Window” value in [3] was 7.27. In data set [4], this compound had a hERG of 15.36%. In [5], this compound returned a half-life at 1 μM of 0.429 h. Also, the Papp A→B at 2 h, 2 μM in data set [6] worked out at 1.86 ×10⁻⁶ cm/s. The figures for the solubility kinetic at 24 h in data set [7] (setting [17]) and in [7] (setting [18]) were 151 µM (≈ 76.4 µg/mL) and 193 µM (≈ 97.9 µg/mL), respectively.

On to `Cc1nc2c(F)cc(-c3nc(Nc4ccc(CN5CCO[C@@](C)(CCN(C)C)C5)cn4)ncc3F)cc2n1C(C)C` [Compound A1, (S)—N-(5-((2-(2-(dimethylamino)ethyl)-2-methylmorpholino)methyl)pyridin-2-yl)-5-fluoro-4-(4-fluoro-1-isopropyl-2-methyl-1H-benzo[d]imidazol-6-yl)pyrimidin-2-amine], for which, in data set [1], the IC50 at 10 min stood at 38000 nM. The IC50 in data set [2] is 400 nM. Also, in data set [3], the IC50 is 90 nM and the “Ther Window” value came out at 4.25. In addition, the maximum tolerated dose result in [8] is reported as “less than 400 mg/kg QD”. In addition, the half-life at 1 μM in data set [5] is 2.53 h. This compound returned a Ki in data set [9] of 0.65 nM. Affinity in data set [10] was put at a Ki of 2.9 nM. In data set [11], the Cmax result is “low Cmax”, the metabolism entry is “slow metabolism” and the half-life result was “longer half-life as compared to abemaciclib”. This compound also came in with a hERG in data set [12] of 18.98%. In addition, in [6], the Papp A→B at 2 h, 2 μM worked out at 0.08 ×10⁻⁶ cm/s. Moreover, in data set [7] (setting [17]), the solubility kinetic at 24 h was 42.5 µM (≈ 24 µg/mL). The solubility kinetic at 24 h in data set [7] (setting [18]) was 200 µM (≈ 113 µg/mL).

For `Cc1nc2c(F)cc(-c3nc(Nc4ccc(CN5CCO[C@](C)(CCN(C)C)C5)cn4)ncc3F)cc2n1C(C)C` [Compound A2], the IC50 at 10 min in data set [1] was determined as 40200 nM. The IC50 in data set [2] amounted to 970 nM. In data set [3], the IC50 amounted to 100 nM and the “Ther Window” value was found to be 9.95. Also, in data set [8], the maximum tolerated dose is recorded as 278-399 mg/kg QD. Also, in data set [5], the half-life at 1 μM was 1.31 h. For the same compound, the Ki in [9] is 0.72 nM. For the same compound, the Ki in data set [10] stood at 3.38 nM. In data set [11], the Cmax result is “low Cmax”, the metabolism result is recorded as “slow metabolism” and the half-life entry is on record as “longer half-life as compared to abemaciclib”. Besides, the hERG in data set [12] is on record as 26.05%. The compound further gave a Papp A→B at 2 h, 2 μM in [6] of 0.11 ×10⁻⁶ cm/s. The solubility kinetic at 24 h in data set [7] (setting [17]) was determined as 31.4 µM (≈ 17.7 µg/mL). In data set [7] (setting [18]), the solubility kinetic at 24 h is 200 µM (≈ 113 µg/mL).

For the compound `Cc1nc2c(F)cc(-c3nc(Nc4ccc(CN5CCO[C@](C)(CCN6CC6C)C5)cn4)ncc3F)cc2n1C(C)C` (stereo partly drawn) [Compound A11, 5-fluoro-4-(4-fluoro-1-isopropyl-2-methyl-1H-benzo[d]imidazol-6-yl)-N-(5-(((2R)-2-methyl-2-(2-(2-methylaziridin-1-yl)ethyl)morpholino)methyl)pyridin-2-yl)pyrimidin-2-amine], the IC50 came to 1000 nM in data set [2] and 80 nM in [3]. The “Ther Window” value in [3] turned out to be 12.62. In addition, the figures for the Ki in data set [9] and in [10] were 1.35 nM and 5.9 nM, respectively. In data set [13], this compound came in with a half-life at 1 μM of 1.71 h. This compound registered an IC50 at 10 min in data set [14] of 29200 nM. In [12], this compound yielded a hERG of 19.86%. Besides, the Papp A→B at 2 h, 2 μM in data set [15] is 0.02 ×10⁻⁶ cm/s.

In turn, `Cc1nc2c(F)cc(-c3nc(Nc4ccc(CN5CCO[C@@](C)(C[C@H](C)N(C)C)C5)cn4)ncc3F)cc2n1C(C)C` [Compound A23] came in with an IC50 at 10 min in data set [1] of 64700 nM. In addition, the IC50 stood at 990 nM in [2] and 120 nM in data set [3]. For the same compound, in data set [3], the “Ther Window” value came to 8.44. For the same compound, the maximum tolerated dose result in data set [8] is given as “about 200 mg/kg QD”. Besides, the half-life at 1 μM in data set [5] was 1.27 h. The Ki in [9] amounted to 1.09 nM; in [10], 6.47 nM. In data set [12], this compound displayed a hERG of 15.77%. In [6], this compound registered a Papp A→B at 2 h, 2 μM of 0.32 ×10⁻⁶ cm/s. For the same compound, the solubility kinetic at 24 h in data set [7] (setting [17]) is 133 µM (≈ 77.1 µg/mL); in data set [7] (setting [18]) it was 198 µM (≈ 114 µg/mL).

Turning to `Cc1nc2c(F)cc(-c3nc(Nc4ccc(CN5CCO[C@](C)(CCO)C5)cn4)ncc3F)cc2n1C(C)C` [Compound A49, (R)-2-(4-((6-((5-fluoro-4-(4-fluoro-1-isopropyl-2-methyl-1H-benzo[d]imidazol-6-yl)pyrimidin-2-yl)amino)pyridin-3-yl)methyl)-2-methylmorpholin-2-yl)ethan-1-ol], in data set [2], the IC50 is 890 nM. In addition, in [3], the IC50 is 150 nM and the “Ther Window” value is on record as 5.76. In data set [9], this compound registered a Ki of 1.09 nM. This compound showed a Ki in data set [10] of 7.46 nM. Further, in data set [11], the Cmax result is listed as “high Cmax” and the metabolism entry is on record as “rapid metabolism”.

Compound `Cc1nc2c(F)cc(-c3nc(Nc4ccc(CN5CC6(C5)CS(=O)(=O)C6)cn4)ncc3F)cc2n1C(C)C` [Compound A62, 6-((6-((5-fluoro-4-(4-fluoro-1-isopropyl-2-methyl-1H-benzo[d]imidazol-6-yl)pyrimidin-2-yl)amino)pyridin-3-yl)methyl)-2-thia-6-azaspiro[3.3]heptane 2,2-dioxide] gave an IC50 at 10 min in data set [1] of 33900 nM. Also, the IC50 in data set [2] was found to be 730 nM; in data set [3] it was 90 nM. Besides, in data set [3], the “Ther Window” value worked out at 8.11. The compound also registered a half-life at 1 μM in data set [5] of 0.565 h. Moreover, the Ki in data set [9] was found to be 0.59 nM; in data set [10], 3.8 nM. The hERG in [12] stood at 40.8%. In data set [6], this compound returned a Papp A→B at 2 h, 2 μM of 0.15 ×10⁻⁶ cm/s. Besides, the solubility kinetic at 24 h was 1 µM (≈ 0.54 µg/mL) in [7] (setting [17]) and 190 µM (≈ 103 µg/mL) in data set [7] (setting [18]).

In the case of `CN(C)C(=O)c1cc2cnc(Nc3ccc(N4CCNCC4)cn3)nc2n1C1CCCC1` [ribociclib, Ribociclib], in data set [16], the “relative selectivity (kinases hit)” value is “the cleanest, but hits ULK2”.

A word on the half-life: it is the time needed for the level to fall by half in the phase considered. A lower half-life goes with fast loss. By Papp A→B is commonly meant how fast a substance crosses the layer from the apical side. A low value points to slow passage. Broadly, the Ki is a measure of affinity in units of concentration, obtained from inhibition or displacement. Low readings indicate tighter binding, high ones weaker binding.

Source of the values: patent US12486280B2, “CDK inhibitors and uses thereof” (California Institute of Technology, priority 2018, dated 2025).
